Patent US4351948A, “Imidazole hydrazone derivatives” (priority 1980, dated 1982)
Like-named read-outs stand apart in the source and are kept apart here.

Key:
[1] = tested on: Bacteroides fragilis ATCC 23745; test: Minimal inhibitory concentration against anaerobic bacteria; settings: ATCC23745, 24 h
[2] = tested on: platelet thromboxane generation; test: Inhibition of platelet thromboxane generation (TxB2, collagen-stimulated human platelet rich plasma); type: cell-based; settings: Homo sapiens, 10 min, read-out: Activity IC50 (50% inhibition of TxB2 generation)
Procedure: The compounds used according to the invention as anti-thrombotics were tested by the following method for their ability to inhibit platelet thromboxane generation.
Human venous blood was collected from healthy male donors, who had denied any medication in the previous 14 days. Nine volumes of blood were mixed with one volume of 3.24% trisodium citrate. The citrated blood was centrifuged at 160 g for 10 mins. at 22° C. to obtain platelet rich plasma (PRP). The platelets were then counted on a Coulter counter, and the platelet count was adjusted to 200,000 per μl with plasma.
The PRP was then dispensed as aliquots into micro-Eppendorf tubes, maintained at 37° C. in a dry bath. The compounds dissolved either in saline, ethanol, or DMSO were added in duplicate to the PRP aliquots to produce final concentrations of 0.3, 3 and 30 μg/ml. When ethanol and DMSO were used as the vehicle, triplicate controls containing the same percentage of vehicle as the test compounds were made. The final concentration or organic solvent was never more than 0.1%, which in previous experiments had no effect on TxB2 generation.
Following a 10 min. incubation with test compounds or vehicle, collagen was added to produce a final concentration of 8 μg/ml. The tubes were then whirly-mixed for 15 seconds and replaced in the dry bath for a further 10 minutes, controls received saline instead of collagen. The reaction was then stopped by rapid centrifugation, 15,000 g for 3 mins. The plasma was removed and frozen at -29° C. until assayed.
Briefly, 100 μl aliquots, in tricine buffered saline+0.8% gelatin (pH 8.0) of the following were incubated together for 1 hour at 37° C.: thromboxane Tx B2 (plasma extract, spiked plasma extract or standards 20 to 20,000 pg/ml), ^3 H--TxB2 (approximately 15,000 dpm) and anti-TxB2 antiserum (0.5 μg/100 μl). The free and protein bound ^3 H--TxB2 were separated by ammonium sulphate precipitation followed by centrifugation. 300 μl of the supernatant was added to an aqueous scintillation fluid, and the radioactivity present was counted in a liquid scintillation counter. The binding of ^3 H--TxB2 in the absence of added TxB2 was approximately 55%. The least amount of TxB2 to be detected accurately in the plasma was 0.08 ng/ml. Cross reactivity with other prostaglandins is less than 0.005% except PGD2 which is 1%.
Thus plasma samples were assayed to give a rough approximation of TxB2 content. The plasma was then appropriately diluted and assayed in duplicate to give accurate values.
The amount of TxB2 generated by the collagen was calculated by subtracting mean values obtained for the saline stimulated platelets from the mean values obtained from the collagen stimulated platelets. Then the amount of TxB2 generated in the presence of each concentration of compound was expressed as a % control and dose response curves were then constructed to determine the concentration of compound which produced a 50% inhibition.

Streptococcus pyrogenes = test: Anti-bacterial activity, zone diameter; type: cell-based; settings: 50 μg; Streptococcus pyrogenes; read-out: Zone diameter given by 50 μg of drug
Source text: (§1) The anti-bacterial activity of the compound HC274 according to the present invention was also compared with the activity of known anti-bacterial agents with the following results: […]

Klebsiella pneumoniac = test: Anti-bacterial activity, zone diameter; type: cell-based; settings: 50 μg; Klebsiella pneumoniac; read-out: Zone diameter given by 50 μg of drug
Source text: as §1

Escherichia coli = test: Anti-bacterial activity, zone diameter; type: cell-based; settings: 50 μg, read-out: Zone diameter given by 50 μg of drug
Source text: as §1

Proteus vulgaris = test: Anti-bacterial activity, zone diameter; type: cell-based; settings: 50 μg, read-out: Zone diameter given by 50 μg of drug
Source text: as §1

Staphylococcus aureus = test: Anti-bacterial activity, zone diameter; type: cell-based; settings: 50 μg, read-out: Zone diameter given by 50 μg of drug
Source text: as §1

Nocardia asteroides = test: Anti-bacterial activity, zone diameter; type: cell-based; settings: 50 μg, read-out: Zone diameter given by 50 μg of drug
Source text: as §1

[3] = tested on: Desulfovibrio desulfuricans API-BREWER; test: Minimal inhibitory concentration against anaerobic bacteria; settings: 24 h
B. fragilis ATCC 23745 = test: Antianaerobic activity, MIC by standard broth dilution method (Table II); type: cell-based; settings: Bacteroides fragilis, ATCC23745, 24 h, read-out: Minimal Inhibitory Concentration (MIC)
In short: (§2)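 MIC determined by standard broth dilution against single strains of the anaerobes and T. vaginalis.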

B. uniformis ATCC 8492 = test: as above; type: cell-based; settings: Bacteroides uniformis, ATCC8492, 24 h, read-out: Minimal Inhibitory Concentration (MIC)
In short: as §2

T. vaginalis ATCC 30001 = test: as above; type: cell-based; settings: Trichomonas vaginalis, ATCC30001, 24 h, read-out: Minimal Inhibitory Concentration (MIC)
In short: as §2

[4] = tested on: Trichophyton mentagrophytes; test: Experimental Trichophyton mentagrophytes infection in guinea pigs; type: in vivo
Source text: Effect of oral or topical administration of HC274, HC344, Clotrimazole, and Ketoconazole on experimental Trichophyton mentagrophytes infection in guinea pigs.
*Based on degree of hair loss, erythema, desquamation, Max. = 100
Treatments administered in Carbopol® gel, once daily days 5-10.

[5] = tested on: Bacteroides uniformis ATCC 8492; test: Minimal inhibitory concentration against anaerobic bacteria; settings: ATCC8492, 24 h
candida albicans = test: Oral treatment: recovery of viable candida albicans from the kidneys of infected mice; type: in vivo
Source text: Effect of oral treatment with HC274, HC316, HC390, HC415 and Ketoconazole on the recovery of viable candida albicans from the kidneys of infected mice.

[6] = read-out: Minimal Inhibitory Concentration, Test 1, 24 hours at 37° C.
[7] = read-out: Minimal Inhibitory Concentration, Test 2, 24 hours at 37° C.
[8] = read-out: Minimal Inhibitory Concentration, Test 3, 24 hours at 37° C.

## Cl.Clc1ccc(/C(Cn2ccnc2)=N\Nc2ccc(Cl)cc2Cl)cc1 [HC274, (E)-1-(4-chlorophenyl)-2-(1H-imidazol-1-yl)ethanone, 2,4-dichlorophenylhydrazone, hydrochloride]
[1]; [6]
  MIC: 2.5 µg/mL
[1]; [7]
  MIC: 5 µg/mL
[1]; [8]
  MIC: 7.5 µg/mL
[2]
  IC50: 15.9 µM
Streptococcus pyrogenes
  zone of inhibition at 50 µg/disc: 9 mm
Klebsiella pneumoniac
  zone of inhibition at 50 µg/disc: 0 mm
Escherichia coli
  zone of inhibition at 50 µg/disc: 0 mm
Proteus vulgaris
  zone of inhibition at 50 µg/disc: 0 mm
Staphylococcus aureus
  zone of inhibition at 50 µg/disc: 8 mm
Nocardia asteroides
  zone of inhibition at 50 µg/disc: 11 mm
[3]; [6]
  MIC: 0.75 µg/mL
[3]; [7]
  MIC: 1 µg/mL
[3]; [8]
  MIC: 0.5 µg/mL
B. fragilis ATCC 23745; Test 1
  MIC: 2.5 µg/mL
B. fragilis ATCC 23745; Test 2
  MIC: 5 µg/mL
B. fragilis ATCC 23745; Test 3
  MIC: 7.5 µg/mL
B. uniformis ATCC 8492; Test 1
  MIC: 2.5 µg/mL
B. uniformis ATCC 8492; Test 2
  MIC: 2.5 µg/mL
B. uniformis ATCC 8492; Test 3
  MIC: 5 µg/mL
T. vaginalis ATCC 30001; Test 1
  MIC: 5 µg/mL
T. vaginalis ATCC 30001; Test 2
  MIC: 7.5 µg/mL
T. vaginalis ATCC 30001; Test 3
  MIC: > 10 µg/mL
[4]; 40 mg/kg p.o., day 5 after infection
  Disease rating (degree of hair loss, erythema, desquamation, Max. = 100): 100
[4]; 40 mg/kg p.o., day 10 after infection
  Disease rating (degree of hair loss, erythema, desquamation, Max. = 100): 46.9
[4]; topical, 1% w/w in Carbopol gel once daily days 5-10, day 10 after infection
  Disease rating (degree of hair loss, erythema, desquamation, Max. = 100): 35.4
[4]; topical, 1% w/w in Carbopol gel, day 5 after infection
  Disease rating (degree of hair loss, erythema, desquamation, Max. = 100): 100
[5]; [6]
  MIC: 2.5 µg/mL
[5]; [7]
  MIC: 2.5 µg/mL
[5]; [8]
  MIC: 5 µg/mL
Candida albicans; 5 mg/kg
  Recovery of C.albicans (as percentage of control): 84.2 percentage of control
Candida albicans; 20 mg/kg
  Recovery of C.albicans (as percentage of control): 47.8 percentage of control
